Laboratory results from patent publication US9006487B2, “Amine-containing lipids and uses thereof” (Massachusetts Institute of Technology, priority 2005, dated 2015).
“And” between values parts separate entries of the source, which are not always exact repeats. Equal values may be shown once. Values belong to the compound of their own block, whether it stands above or below them.

Tests used:
[1] = DNA delivery: raw luciferase expression (relative light units) of best-transfecting lipids; type: cell-based; details: 300 ng of DNA per well
Method: Raw values for luciferase expression (relative lights units) of best-transfecting lipids at lipid/DNA (w/w) ratios listed. 300 ng of DNA was added per well.

[2] = tested on: cos-7 cells; assay: DNA transfection: luciferase expression relative to Lipofectamine 2000; type: cell-based; details: for luciferase expression (second part of table, values relative to LIPO2000): 300 ng of DNA per well; for % of the luciferase activity obtained from the use of Lipofectamine 2000: 300 ng DNA per well, luciferase assay after 48 hours
Summary of the method: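 Lipid/DNA complexes, 300 ng luciferase DNA per well at 2.5-25 w/w lipid:DNA, were formed in sodium acetate/Optimem and added to overnight-seeded cos-7 cells. Luciferase was measured by Bright-Glo luminescence after 48 hours and quantified against an enzyme standard curve. Values are expressed as % of Lipofectamine 2000 at 2.5 w/w.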

SMILES: CCCCCCCCCCCCNC(=O)CCN(CCCO)CCC(=O)NCCCCCCCCCCCC [ND20]
Raw values for luciferase expression ([1]; lipid/DNA 2.5 w/w): 6868960 relative lights units and 7521540 relative lights units
luciferase expression (second part of table, values relative to LIPO2000) ([2]; lipid/DNA 2.5 w/w): 278.4
luciferase expression (second part of table, values relative to LIPO2000) ([2]; lipid/DNA 5 w/w): 278.1
luciferase expression (second part of table, values relative to LIPO2000) ([2]; lipid/DNA 10 w/w): 0.2
luciferase expression (second part of table, values relative to LIPO2000) ([2]; lipid/DNA 15 w/w): 0.1
luciferase expression (second part of table, values relative to LIPO2000) ([2]; lipid/DNA 20 w/w): 0.0
luciferase expression (second part of table, values relative to LIPO2000) ([2]; lipid/DNA 25 w/w): 0.0
luciferase expression, second set of columns (replicate set of data) ([2]; 1st column, no head printed (2.5 w/w by the raw values)): 84.9
luciferase expression, second set of columns (replicate set of data) ([2]; 2nd column, no head printed (5 w/w by the raw values)): 5.5
luciferase expression, second set of columns (replicate set of data) ([2]; 3rd column, no head printed (10 w/w by the raw values)): 0.1
luciferase expression, second set of columns (replicate set of data) ([2]; 4th column, no head printed (15 w/w by the raw values)): 0.0

SMILES: CCCCCCCCCCCCNC(=O)CCN(CCC(=O)NCCCCCCCCCCCC)CCc1c[nH]cn1 [ND94]
Raw values for luciferase expression ([1]; lipid/DNA 2.5 w/w): 774425 relative lights units
Raw values for luciferase expression ([1]; lipid/DNA 5 w/w): 1382667 relative lights units

SMILES: CCCCCCCCCCCCNC(=O)CCN(C)CCCN(CCC(=O)NCCCCCCCCCCCC)CCC(=O)NCCCCCCCCCCCC [ND96]
Raw values for luciferase expression ([1]; lipid/DNA 2.5 w/w): 2910700 relative lights units
Raw values for luciferase expression ([1]; lipid/DNA 5 w/w): 42837 relative lights units

SMILES: CCCCCCCCCCCCNC(=O)CCN(CCO)CCN(CCC(=O)NCCCCCCCCCCCC)CCC(=O)NCCCCCCCCCCCC [ND109]
Raw values for luciferase expression ([1]; lipid/DNA 2.5 w/w): 2197484 relative lights units
Raw values for luciferase expression ([1]; lipid/DNA 5 w/w): 2087995 relative lights units

SMILES: CCCCCCCCCCCCCCNC(=O)CCN(CCCOC)CCC(=O)NCCCCCCCCCCCCCC [NF1]
Raw values for luciferase expression ([1]; lipid/DNA 2.5 w/w): 778473 relative lights units
Raw values for luciferase expression ([1]; lipid/DNA 5 w/w): 227587 relative lights units

SMILES: CCCCCCCCCCCCCCNC(=O)CCN(CCOC)CCC(=O)NCCCCCCCCCCCCCC [NF10]
Raw values for luciferase expression ([1]; lipid/DNA 2.5 w/w): 1192178 relative lights units
Raw values for luciferase expression ([1]; lipid/DNA 5 w/w): 838283 relative lights units

SMILES: CCCCCCCCCCCCCCNC(=O)CCN(CCCO)CCC(=O)NCCCCCCCCCCCCCC [NF20]
Raw values for luciferase expression ([1]; lipid/DNA 2.5 w/w): 1814886 relative lights units
Raw values for luciferase expression ([1]; lipid/DNA 5 w/w): 1801431 relative lights units

SMILES: CCCCCCCCCCCCCCNC(=O)CCN(CCC(=O)NCCCCCCCCCCCCCC)C(CO)CO [NF25]
Raw values for luciferase expression ([1]; lipid/DNA 2.5 w/w): 2473702 relative lights units
Raw values for luciferase expression ([1]; lipid/DNA 5 w/w): 1366194 relative lights units

SMILES: CCCCCCCCCCCCCCNC(=O)CCN(C)CCCN(C)CCC(=O)NCCCCCCCCCCCCCC [NF63]
Raw values for luciferase expression ([1]; lipid/DNA 2.5 w/w): 1141469 relative lights units
Raw values for luciferase expression ([1]; lipid/DNA 5 w/w): 865897 relative lights units
Raw values for luciferase expression ([1]; lipid/DNA 10 w/w): 3031718 relative lights units
Raw values for luciferase expression ([1]; lipid/DNA 15 w/w): 1138429 relative lights units

SMILES: CCCCCCCCCCCCCCNC(=O)CCN(CCCN1CCOCC1)CCC(=O)NCCCCCCCCCCCCCC [NF91]
Raw values for luciferase expression ([1]; lipid/DNA 2.5 w/w): 1993690 relative lights units
Raw values for luciferase expression ([1]; lipid/DNA 5 w/w): 1670695 relative lights units

SMILES: CCCCCCCCCCCCCCCNC(=O)CCN(CC)CCN(CC)CCC(=O)NCCCCCCCCCCCCCCC [NG61]
Raw values for luciferase expression ([1]; lipid/DNA 2.5 w/w): 1452027 relative lights units
Raw values for luciferase expression ([1]; lipid/DNA 5 w/w): 765795 relative lights units

SMILES: CCCCCCCCCCCCCCCNC(=O)CCN(CCC(=O)NCCCCCCCCCCCCCCC)CCC1CCCN1C (stereo not shown) [NG77]
Raw values for luciferase expression ([1]; lipid/DNA 2.5 w/w): 972002 relative lights units
Raw values for luciferase expression ([1]; lipid/DNA 5 w/w): 1184771 relative lights units

SMILES: CCCCCCCCCCCCCCCNC(=O)CCN(CCC(=O)NCCCCCCCCCCCCCCC)CCN(CCO)CCO [NG86]
Raw values for luciferase expression ([1]; lipid/DNA 2.5 w/w): 1357355 relative lights units
Raw values for luciferase expression ([1]; lipid/DNA 5 w/w): 1521687 relative lights units
Raw values for luciferase expression ([1]; lipid/DNA 10 w/w): 1513703 relative lights units
Raw values for luciferase expression ([1]; lipid/DNA 15 w/w): 1223360 relative lights units

SMILES: CCCCCCCCCCCCCCCNC(=O)CCN(CCCN(CCO)CCO)CCC(=O)NCCCCCCCCCCCCCCC [NG87]
Raw values for luciferase expression ([1]; lipid/DNA 2.5 w/w): 823764 relative lights units
Raw values for luciferase expression ([1]; lipid/DNA 5 w/w): 1005875 relative lights units

SMILES: CCCCCCCCCCCCCCCNC(=O)CCN(C)CCN(CCC(=O)NCCCCCCCCCCCCCCC)CCC(=O)NCCCCCCCCCCCCCCC [NG95]
Raw values for luciferase expression ([1]; lipid/DNA 10 w/w): 834849 relative lights units
Raw values for luciferase expression ([1]; lipid/DNA 15 w/w): 1208120 relative lights units

SMILES: CCCCCCCCCCCCCCCOC(=O)CC[N+](C)(CCC[N+](C)(CCO)CCO)CCC(=O)OCCCCCCCCCCCCCCC [QG87]
% of the luciferase activity obtained from the use of Lipofectamine 2000 ([2]; 2.5 w/w lipid to DNA): 89.0%
% of the luciferase activity obtained from the use of Lipofectamine 2000 ([2]; 5 w/w lipid to DNA): 94.0%
% of the luciferase activity obtained from the use of Lipofectamine 2000 ([2]; 10 w/w lipid to DNA): 42.4%
% of the luciferase activity obtained from the use of Lipofectamine 2000 ([2]; 15 w/w lipid to DNA): 64.7%
% of the luciferase activity obtained from the use of Lipofectamine 2000 ([2]; 20 w/w lipid to DNA): 62.1%
% of the luciferase activity obtained from the use of Lipofectamine 2000 ([2]; 25 w/w lipid to DNA): 44.1%
luciferase expression (second part of table, values relative to LIPO2000) ([2]; lipid/DNA 2.5 w/w): 89.0
luciferase expression (second part of table, values relative to LIPO2000) ([2]; lipid/DNA 5 w/w): 94.0
luciferase expression (second part of table, values relative to LIPO2000) ([2]; lipid/DNA 10 w/w): 42.4
luciferase expression (second part of table, values relative to LIPO2000) ([2]; lipid/DNA 15 w/w): 64.7
luciferase expression (second part of table, values relative to LIPO2000) ([2]; lipid/DNA 20 w/w): 62.1
luciferase expression (second part of table, values relative to LIPO2000) ([2]; lipid/DNA 25 w/w): 44.1

SMILES: CCCCCCCCCCCCCCCOC(=O)CC[N+](C)(CCC[N+](C)(CCC(=O)OCCCCCCCCCCCCCCC)CCC(=O)OCCCCCCCCCCCCCCC)CCC(=O)OCCCCCCCCCCCCCCC [QG100]
% of the luciferase activity obtained from the use of Lipofectamine 2000 ([2]; 2.5 w/w lipid to DNA): 11.2%
% of the luciferase activity obtained from the use of Lipofectamine 2000 ([2]; 5 w/w lipid to DNA): 32.1%
% of the luciferase activity obtained from the use of Lipofectamine 2000 ([2]; 10 w/w lipid to DNA): 57.1%
% of the luciferase activity obtained from the use of Lipofectamine 2000 ([2]; 15 w/w lipid to DNA): 102.6%
% of the luciferase activity obtained from the use of Lipofectamine 2000 ([2]; 20 w/w lipid to DNA): 93.0%
% of the luciferase activity obtained from the use of Lipofectamine 2000 ([2]; 25 w/w lipid to DNA): 94.5%
luciferase expression (second part of table, values relative to LIPO2000) ([2]; lipid/DNA 2.5 w/w): 11.2
luciferase expression (second part of table, values relative to LIPO2000) ([2]; lipid/DNA 5 w/w): 32.1
luciferase expression (second part of table, values relative to LIPO2000) ([2]; lipid/DNA 10 w/w): 57.1
luciferase expression (second part of table, values relative to LIPO2000) ([2]; lipid/DNA 15 w/w): 102.6
luciferase expression (second part of table, values relative to LIPO2000) ([2]; lipid/DNA 20 w/w): 93.0
luciferase expression (second part of table, values relative to LIPO2000) ([2]; lipid/DNA 25 w/w): 94.5

Further lines, results first:

Raw values for luciferase expression ([1]; lipid/DNA 2.5 w/w): 1443678 relative lights units
Raw values for luciferase expression ([1]; lipid/DNA 5 w/w): 33188 relative lights units
SMILES: CCCCCCCCCCCCCCCCNC(=O)CCN(CCN(CCC(=O)NCCCCCCCCCCCCCCCC)C(C)C)C(C)C [NP62]

Raw values for luciferase expression ([1]; lipid/DNA 2.5 w/w): 1180418 relative lights units
Raw values for luciferase expression ([1]; lipid/DNA 5 w/w): 1543275 relative lights units
Raw values for luciferase expression ([1]; lipid/DNA 10 w/w): 1388102 relative lights units
Raw values for luciferase expression ([1]; lipid/DNA 15 w/w): 798342 relative lights units
SMILES: CCCCCCCCCCCCCCCCNC(=O)CCN(C)CCCN(C)CCC(=O)NCCCCCCCCCCCCCCCC [NP63]

Raw values for luciferase expression ([1]; lipid/DNA 10 w/w): 595340 relative lights units
Raw values for luciferase expression ([1]; lipid/DNA 15 w/w): 1323915 relative lights units
SMILES: CCCCCCCCCCCCCCCCNC(=O)CCN(CCC(=O)NCCCCCCCCCCCCCCCC)CCN(CCO)CCO [NP86]

Raw values for luciferase expression ([1]; lipid/DNA 10 w/w): 1207376 relative lights units
Raw values for luciferase expression ([1]; lipid/DNA 15 w/w): 1192838 relative lights units
SMILES: CCCCCCCCCCCCCCCCNC(=O)CCN(CCCN(CCO)CCO)CCC(=O)NCCCCCCCCCCCCCCCC [NP87]

Raw values for luciferase expression ([1]; lipid/DNA 2.5 w/w): 3202948 relative lights units
Raw values for luciferase expression ([1]; lipid/DNA 5 w/w): 9767 relative lights units
SMILES: CCCCCCCCCCCCCCCCNC(=O)CCN(CCC(=O)NCCCCCCCCCCCCCCCC)CCN(CCC(=O)NCCCCCCCCCCCCCCCC)CCC(=O)NCCCCCCCCCCCCCCCC [NP99]
